Here are results for one compound from ChEMBL document CHEMBL3085632, “Subcellular localization of proflavine derivative and induction of oxidative stress--in vitro studies” (Bioorg Med Chem, 2013).

Activity calls are given as the source filed them. The calls are words filed in the database; no cut-off is given here.

For orientation: IC50 means the concentration that gives 50% inhibition.

Data set [1] can be described thus: Drug uptake in lysosomes of mouse L1210 cells at 4 uM after 30 mins by MDC staining-based flow cytometric analysis. Type of data set: ADME, cell-based, Lysosome. The settings on record: l1210, 0.5 h.
In data set [2] the test system is L1210. As to the kind of experiment: Cell cycle arrest in mouse L1210 cells assessed as accumulation at sub-G0 phase at 10 uM after 5 hrs by propidium iodide staining-based flow cytometric analysis relative to control. It is filed as functional. (In general: A flow cytometer gives signals particle by particle.)
For data set [3], the system named is L1210. Kind of data set: Induction of apoptosis in mouse L1210 cells assessed as nucleosomal DNA fragmentation at 10 to 15 uM after 4 hrs by agarose gel electrophoresis. Type of data set: functional, cell-based.
Data set [4] deals with L1210. Kind of data set: Cytotoxicity against mouse L1210 cells assessed as intracellular ATP level at 5 to 10 uM after 6 hrs by luminometric assay in presence of vitamin E. Type of data set: functional, cell-based.
The next data set concerns NIH3T3. As to the kind of experiment: Cytotoxicity against mouse NIH/3T3 cells assessed as cell viability after 72 hrs by MTT assay. It is filed as cell-based. The note with it: NIH3T3, 72 h. Background: Tetrazolium dyes change colour on reduction, which living cells bring about.
Data set [5] can be described thus: Drug uptake in nucleus of mouse L1210 cells by Hoechst-33342 staining-based fluorescence microscopic analysis. Type of data set: ADME, cell-based.
Data set [6] deals with L1210. Kind of data set: Induction of apoptosis in mouse L1210 cells assessed as DNA ladder formation at 10 to 15 uM after 8 hrs by agarose gel electrophoresis. Type of data set: functional, cell-based.
The nature of data set [7]: Drug uptake in mitochondria of mouse L1210 cells at 4 uM after 0.5 to 24 hrs by MitoRed staining-based flow cytometric analysis. It is filed as ADME. The note with it: l1210, 4 µM.
Data set [8] concerns L1210. Kind of data set: Induction of intracellular ROS production in mouse L1210 cells at 5 uM after 6 hrs by Dihydroethidium staining-based fluorescence assay in absence of vitamin E relative to control. It is filed as functional.
For data set [9], the system named is L1210. Kind of data set: Cytotoxicity against mouse L1210 cells assessed as cell viability at 5 to 20 uM after 24 hrs by MTT assay in presence of vitamin E. It is filed as functional, cell-based.
For data set [10], the system named is L1210. Kind of data set: Cytotoxicity against mouse L1210 cells assessed as decrease in intracellular ATP level at 10 uM after 6 hrs by luminometric assay. It is filed as functional. The arrangement: scale not given: the % may be the effect or the level left.
Data set [11] in a line: Selectivity ratio of IC50 for mouse NIH/3T3 cells to IC50 for human HL60 cells. It is filed as ADME, cell-based, HL-60. The settings on record: NIH/3T3 cells versus HL60 cells, read-out: Ratio IC50.
The subject of data set [12] is L1210. Kind of data set: Cytotoxicity against mouse L1210 cells assessed as cell viability at 50 uM after 24 hrs by MTT assay in presence of vitamin E. It is filed as functional. The settings on record: L1210, 24 h, read-out: Activity.
Data set [13] in a line: Selectivity ratio of IC50 for mouse NIH/3T3 cells to IC50 for mouse L1210 cells. The note with it: NIH/3T3 cells versus L1210 cells, read-out: Ratio IC50. Type of data set: ADME, cell-based.
Data set [14] concerns L1210. Kind of data set: Induction of intracellular ROS production in mouse L1210 cells at 5 uM after 6 hrs by Dihydroethidium staining-based fluorescence assay in presence of vitamin E relative to control. It is filed as functional, cell-based.
The nature of data set [15]: Drug uptake in nucleus of mouse L1210 cells at 5 uM after 1 hr by propidium iodide staining-based confocal microscopic analysis. The settings on record: l1210, 1 h. It is filed as ADME, cell-based.
The test system of data set [16] is L1210. As to the kind of experiment: Cell cycle arrest in mouse L1210 cells assessed as accumulation at S-phase at 10 uM after 5 hrs by propidium iodide staining-based flow cytometric analysis relative to control. It is filed as functional.

As to `CCCCCCN1C(=O)CN/C1=N\c1ccc2cc3ccc(/N=C4\NCC(=O)N4CCCCCC)cc3nc2c1.Cl`, the Drug uptake result is “Not Active” in [1], “Not Active” in data set [5], “Active” in data set [7] and “Not Active” in data set [15]. For the same compound, the Activity in the data set on L1210 [2] stood at 17.7%; in the data set with L1210 [10], 50%. The outcome with L1210 [3], in the data set on L1210 [4] and in the data set on L1210 [14] was inactive. In the data set on NIH3T3, the IC50 worked out at 18.6 µM. In addition, the outcome with L1210 [6], with L1210 [9] and in the data set on L1210 [16] was Active. Moreover, the “fold change (FC)” value in the data set on L1210 [8] is 4. In addition, the selectivity ratio in [11] and in data set [13] was 4 throughout. Further, the viability at 50 µM in the data set on L1210 [12] was found to be 80%.
